Here are results for one molecule from PubChem BioAssay AID743028 (The Scripps Research Institute Molecular Screening Center, 2013).

The series is described as follows: IV and oral PK profile in mice – LC-MS, in vivo study for V1a-R antagonist project, late-stage follow-up (AID 743028). The following applies: C57Bl6 mouse plasma PK; for Cmax: peak plasma concentration; for AUC last: plasma exposure; for Tmax: time to peak.

As for `O=C(C1CCN(c2ccc(Cl)cn2)CC1)N(CC1CC1)c1ccc(Cl)cc1`, under “IV dosing 1 mg/kg”, the half-life (commonly how long it takes for the measured level to halve) came to 2.22 h; the Cmax (commonly the maximum level reached in the sampled fluid or tissue) came out at 19.5 µM; the AUC last turned out to be 10.5 µM·h; the Tmax (in general, the time at which the peak concentration occurs) worked out at 0.08 h. In addition, the MRT inf (usually the average time that molecules of a dose stay in the body) (IV dosing 1 mg/kg, mean residence time) stood at 1.65 h. The molecule also showed a clearance (IV dosing 1 mg/kg, plasma clearance) of 2.9 mL/min/kg. The Vss (IV dosing 1 mg/kg, volume of distribution) is 0.26 L/kg. Moreover, where the note is “PO dosing 10 mg/kg”, the half-life was 2.88 h, the Cmax is 3.08 µM, the AUC last was found to be 10.5 µM·h and the Tmax was 0.667 h. The bioavailability (as a rule, the share of a dose that reaches the circulation, judged against a reference dose that is usually intravenous) (PO dosing 10 mg/kg, oral bioavailability) turned out to be 6.54%. Moreover, the apparent oral clearance (CL/F) (PO dosing 10 mg/kg, plasma clearance) was found to be 35.1 mL/min/kg.
